{"source": "patent US9289490B2", "about": "“Combinations and uses thereof” (MORPHOSYS AG, priority 2010, dated 2016)", "system": "AMO-1 cells", "assay": "ADCC with human PBMCs, flow cytometry (CalceinAM/PI)", "assay_type": "cell-based", "procedure": "For Tables 3b-c, “Theoretical Combination” represents the addition of the values of MOR202 alone and the values of LEN alone. The normalized data of Table 3b is calculated as follows. Therefore, the specific killing values of Table 3b are calculated by subtracting the values of the controls. Then the specific killing values are compared to the MOR202 group, which is set as 1.\nThe constant m determines the shape of the dose-effect curve. We used Excel Fit software to carry out a linear regression calculation to estimate the parameters m and D50.\nThe CI-isobol method provides a quantitative assessment of synergism between drugs. A combination index (CI) is estimated from dose-effect data of single and combined drug treatments. […] Formally, the combination index (CI) of a combined drug treatment is defined as CI=D1/Dx1+D2/Dx2\nThe data is analysed in the following way: Antagonistic(AB)/C<(A/C)×(B/C) Additive(AB)/C=(A/C)×(B/C) Synergistic(AB)/C>(A/C)×(B/C) where A is the treatment with LEN alone; B is the treatment with MOR202 alone; C is response to the treatment vehicle; AB is combination of treatments A and B.", "note": "Several values for one entry are separate records, joined by “and”; a condition that tells them apart may be missing. Equal values may be shown once.", "data": [{"smiles": "Nc1cccc2c1CN(C1CCC(=O)NC1=O)C2=O", "note": "(centres unmarked) [LEN, lenalidomide]", "values": [{"measurement": "Cell killing by lenalidomide alone (in words)", "setting": "AMO-1 cells", "result": "no effect on AMO-1 cells regarding cell killing"}, {"measurement": "Enhancement of MOR202 ADCC activity by LEN (in words)", "setting": "AMO-1 cells, Clarke et al. all 6 experiments, Chou et al. 6 out of 6", "result": "synergistically enhanced MOR202 ADCC activity"}, {"measurement": "Normalized specific killing, theoretical combination set as 1, AVERAGE (Table 3c)", "setting": "PBMCs and AMO-1 cells treated with LEN, MOR202 0.42 μg/ml, LEN 5 μM, average of 3 experiments", "result": 0.2}, {"measurement": "% dead cells (raw data, Table 4a)", "setting": "only PBMCs (effector cells) treated with LEN before MOR202, LEN 10 μM, MOR202 and MOR03207 15 μg/ml, Exp. 1-3", "result": "17.93 % dead cells and 15.33 % dead cells and 12.98 % dead cells"}, {"measurement": "Normalized specific killing, theoretical combination set as 1, AVERAGE (Table 4c)", "setting": "only effector cells treated with LEN, MOR202 0.42 μg/ml, LEN 5 μM, average of 3 experiments", "result": 0.1}]}]}
